Results from PubChem BioAssay AID1963426 (Molecular Pharmacology Branch, DTP, NCI, 2024).
Where “and” joins values, the source holds several entries; their conditions need not be identical. Identical values can stand only once.

System: 186277-243-T-J2-PDC complex spheroid growth, % test/control
Assay: Anticancer human tumor 186277-243-T-J2-PDC patient-derived colon adenocarcinoma cell line growth inhibition [Asc]
Conditions: for viability, T/C: stronger effect = lower value
Summary of the method: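 Tumor cells were grown as multicellular spheroids with stromal HUVEC and mesenchymal stem cells and treated singly or in combination. Concentrations fell in half-log steps from the clinical Cmax, or from 10 microM where none was known.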

[1] = curve of first compound, second compound 0.1 µM
[2] = curve of first compound, second compound 0.316 µM
[3] = curve of first compound, second compound 1 µM
[4] = second compound 0.1 µM, first compound 0.00316 µM
[5] = second compound 0.1 µM, first compound 0.01 µM
[6] = second compound 0.1 µM, first compound 0.0316 µM
[7] = second compound 0.1 µM, first compound 0.1 µM
[8] = second compound 0.1 µM, first compound 0.316 µM
[9] = second compound 0.1 µM, first compound 1 µM
[10] = second compound 0.316 µM, first compound 0.00316 µM
[11] = second compound 0.316 µM, first compound 0.01 µM
[12] = second compound 0.316 µM, first compound 0.0316 µM
[13] = second compound 0.316 µM, first compound 0.1 µM
[14] = second compound 0.316 µM, first compound 0.316 µM
[15] = second compound 0.316 µM, first compound 1 µM
[16] = second compound 1 µM, first compound 0.00316 µM
[17] = second compound 1 µM, first compound 0.01 µM
[18] = second compound 1 µM, first compound 0.0316 µM
[19] = second compound 1 µM, first compound 0.1 µM
[20] = second compound 1 µM, first compound 0.316 µM
[21] = second compound 1 µM, first compound 1 µM
[22] = curve of first compound, second compound 0.01 µM
[23] = curve of first compound, second compound 0.0316 µM
[24] = second compound 0.01 µM, first compound 0.0316 µM
[25] = second compound 0.01 µM, first compound 0.1 µM
[26] = second compound 0.01 µM, first compound 0.316 µM
[27] = second compound 0.01 µM, first compound 1 µM
[28] = second compound 0.01 µM, first compound 3.16 µM
[29] = second compound 0.01 µM, first compound 10 µM
[30] = second compound 0.0316 µM, first compound 0.0316 µM
[31] = second compound 0.0316 µM, first compound 0.1 µM
[32] = second compound 0.0316 µM, first compound 0.316 µM
[33] = second compound 0.0316 µM, first compound 1 µM
[34] = second compound 0.0316 µM, first compound 3.16 µM
[35] = second compound 0.0316 µM, first compound 10 µM
[36] = second compound 0.1 µM, first compound 3.16 µM
[37] = second compound 0.1 µM, first compound 10 µM
[38] = second compound 0.316 µM, first compound 3.16 µM
[39] = second compound 0.316 µM, first compound 10 µM
[40] = second compound 1 µM, first compound 3.16 µM
[41] = second compound 1 µM, first compound 10 µM
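Note: spheroids exposed to agents for 7 days.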
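Throughout, for viability, T/C: 100% = DMSO vehicle control wells.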

CCN1CCN(Cc2ccc(Nc3ncc(F)c(-c4cc(F)c5nc(C)n(C(C)C)c5c4)n3)nc2)CC1 + Cc1c(S(C)(=O)=O)c(-c2cc(F)cc(N3CCN(c4ccc(NS(=O)(=O)c5ccc(NC(CCN6CCC(C(=O)OCCCP(=O)(O)O)CC6)CSc6ccccc6)c(S(=O)(=O)C(F)(F)F)c5)cc4)CC3)c2)c(-c2ccc(Cl)cc2)n1C(C)C
IC50 [1]: > 1000 nM | IC50 [2]: > 1000 nM | IC50 [3]: > 1000 nM | IC50 (curve of first compound, second compound 3.16 µM): 788 nM | IC50 (curve of first compound, second compound 10 µM): 738 nM | viability, T/C [4]: 107% | viability, T/C [5]: 99.1% | viability, T/C [6]: 103% | viability, T/C [7]: 125% | viability, T/C [8]: 123% | viability, T/C [9]: 75.3% | viability, T/C [10]: 95.2% | viability, T/C [11]: 94.1% | viability, T/C [12]: 103% | viability, T/C [13]: 115% | viability, T/C [14]: 114% | viability, T/C [15]: 67.7% | viability, T/C [16]: 86.6% | viability, T/C [17]: 99.6% | viability, T/C [18]: 102% | viability, T/C [19]: 120% | viability, T/C [20]: 101% | viability, T/C [21]: 56.7% | viability, T/C (second compound 3.16 µM, first compound 0.00316 µM): 96.4% | viability, T/C (second compound 3.16 µM, first compound 0.01 µM): 89.8% | viability, T/C (second compound 3.16 µM, first compound 0.0316 µM): 101% | viability, T/C (second compound 3.16 µM, first compound 0.1 µM): 113% | viability, T/C (second compound 3.16 µM, first compound 0.316 µM): 89.8% | viability, T/C (second compound 3.16 µM, first compound 1 µM): 39.6% | viability, T/C (second compound 10 µM, first compound 0.00316 µM): 91.3% | viability, T/C (second compound 10 µM, first compound 0.01 µM): 84.3% | viability, T/C (second compound 10 µM, first compound 0.0316 µM): 100% | viability, T/C (second compound 10 µM, first compound 0.1 µM): 110% | viability, T/C (second compound 10 µM, first compound 0.316 µM): 93.5% | viability, T/C (second compound 10 µM, first compound 1 µM): 34.2%

Cc1c(S(C)(=O)=O)c(-c2cc(F)cc(N3CCN(c4ccc(NS(=O)(=O)c5ccc(NC(CCN6CCC(C(=O)OCCCP(=O)(O)O)CC6)CSc6ccccc6)c(S(=O)(=O)C(F)(F)F)c5)cc4)CC3)c2)c(-c2ccc(Cl)cc2)n1C(C)C (stereo not drawn)
IC50 (compound alone, run of 09/27/2022): > 10000 nM

C=CC(=O)N1CCN(c2nc(=O)n(-c3c(C)ccnc3C(C)C)c3nc(-c4c(O)cccc4F)c(F)cc23)C(C)C1 (stereo not drawn) + CNC(C)C(=O)NC1CN(S(=O)(=O)c2cccc(S(=O)(=O)N3CCC4CCC(C(=O)NC(c5ccccc5)c5ccccc5)N4C(=O)C(NC(=O)C(C)NC)C3)c2)CCC2CCC(C(=O)NC(c3ccccc3)c3ccccc3)N2C1=O
IC50 [22]: > 10000 nM | IC50 [23]: > 10000 nM | IC50 [1]: > 10000 nM | IC50 [2]: > 10000 nM | IC50 [3]: > 10000 nM | viability, T/C [24]: 102% | viability, T/C [25]: 114% | viability, T/C [26]: 117% | viability, T/C [27]: 100% | viability, T/C [28]: 112% | viability, T/C [29]: 104% | viability, T/C [30]: 118% | viability, T/C [31]: 104% | viability, T/C [32]: 122% | viability, T/C [33]: 116% | viability, T/C [34]: 100% | viability, T/C [35]: 108% | viability, T/C [6]: 124% | viability, T/C [7]: 108% | viability, T/C [8]: 124% | viability, T/C [9]: 114% | viability, T/C [36]: 122% | viability, T/C [37]: 113% | viability, T/C [12]: 124% | viability, T/C [13]: 118% | viability, T/C [14]: 120% | viability, T/C [15]: 130% | viability, T/C [38]: 112% | viability, T/C [39]: 110% | viability, T/C [18]: 112% | viability, T/C [19]: 124% | viability, T/C [20]: 109% | viability, T/C [21]: 106% | viability, T/C [40]: 127% | viability, T/C [41]: 118%

COc1c(OCCCN2CCOCC2)ccc2c3n(c(=NC(=O)c4cnc(N)nc4)nc12)CCN3
viability, T/C (compound 0.00316 µM): 91% and 96.2% and 93.6% | viability, T/C (compound 0.01 µM): 102% and 91% and 105% | viability, T/C (compound 0.0316 µM): 58.9% and 54.5% and 69% | viability, T/C (compound 0.1 µM): 35.2% and 28.6% and 56.5% | viability, T/C (compound 0.316 µM): 17.5% and 17% and 29.3% | viability, T/C (compound 1 µM): 13.2% and 11.8% and 19.8% | IC50 (curve of compound): 52.2 nM and 41.3 nM and 112 nM

Cn1ncnc1[C@H]1c2n[nH]c(=O)c3cc(F)cc(c23)N[C@@H]1c1ccc(F)cc1 + CNC(C)C(=O)NC1CN(S(=O)(=O)c2cccc(S(=O)(=O)N3CCC4CCC(C(=O)NC(c5ccccc5)c5ccccc5)N4C(=O)C(NC(=O)C(C)NC)C3)c2)CCC2CCC(C(=O)NC(c3ccccc3)c3ccccc3)N2C1=O
IC50 [22]: > 100 nM | IC50 [23]: > 100 nM | IC50 [1]: > 100 nM | IC50 [2]: > 100 nM | IC50 [3]: > 100 nM | viability, T/C (second compound 0.01 µM, first compound 0.000316 µM): 100% | viability, T/C (second compound 0.01 µM, first compound 0.001 µM): 97.5% | viability, T/C (second compound 0.01 µM, first compound 0.00316 µM): 106% | viability, T/C (second compound 0.01 µM, first compound 0.01 µM): 119% | viability, T/C [24]: 144% | viability, T/C [25]: 144% | viability, T/C (second compound 0.0316 µM, first compound 0.000316 µM): 108% | viability, T/C (second compound 0.0316 µM, first compound 0.001 µM): 103% | viability, T/C (second compound 0.0316 µM, first compound 0.00316 µM): 129% | viability, T/C (second compound 0.0316 µM, first compound 0.01 µM): 124% | viability, T/C [30]: 133% | viability, T/C [31]: 155% | viability, T/C (second compound 0.1 µM, first compound 0.000316 µM): 121% | viability, T/C (second compound 0.1 µM, first compound 0.001 µM): 115% | viability, T/C [4]: 124% | viability, T/C [5]: 127% | viability, T/C [6]: 146% | viability, T/C [7]: 155% | viability, T/C (second compound 0.316 µM, first compound 0.000316 µM): 101% | viability, T/C (second compound 0.316 µM, first compound 0.001 µM): 101% | viability, T/C [10]: 108% | viability, T/C [11]: 128% | viability, T/C [12]: 147% | viability, T/C [13]: 159% | viability, T/C (second compound 1 µM, first compound 0.000316 µM): 91.3% | viability, T/C (second compound 1 µM, first compound 0.001 µM): 115% | viability, T/C [16]: 104% | viability, T/C [17]: 131% | viability, T/C [18]: 130% | viability, T/C [19]: 149%

O=C(c1cc(Cc2n[nH]c(=O)c3ccccc23)ccc1F)N1CCN(C(=O)C2CC2)CC1 + CNC(C)C(=O)NC1CN(S(=O)(=O)c2cccc(S(=O)(=O)N3CCC4CCC(C(=O)NC(c5ccccc5)c5ccccc5)N4C(=O)C(NC(=O)C(C)NC)C3)c2)CCC2CCC(C(=O)NC(c3ccccc3)c3ccccc3)N2C1=O
IC50 [22]: > 10000 nM | IC50 [23]: > 10000 nM | IC50 [1]: > 10000 nM | IC50 [2]: > 10000 nM | IC50 [3]: > 10000 nM | viability, T/C [24]: 95.4% | viability, T/C [25]: 116% | viability, T/C [26]: 111% | viability, T/C [27]: 120% | viability, T/C [28]: 121% | viability, T/C [29]: 147% | viability, T/C [30]: 114% | viability, T/C [31]: 102% | viability, T/C [32]: 99.1% | viability, T/C [33]: 114% | viability, T/C [34]: 123% | viability, T/C [35]: 156% | viability, T/C [6]: 111% | viability, T/C [7]: 112% | viability, T/C [8]: 114% | viability, T/C [9]: 123% | viability, T/C [36]: 129% | viability, T/C [37]: 149% | viability, T/C [12]: 98.2% | viability, T/C [13]: 104% | viability, T/C [14]: 104% | viability, T/C [15]: 117% | viability, T/C [38]: 142% | viability, T/C [39]: 148% | viability, T/C [18]: 99.3% | viability, T/C [19]: 111% | viability, T/C [20]: 106% | viability, T/C [21]: 114% | viability, T/C [40]: 125% | viability, T/C [41]: 159%
